# Tested on: lymph node cells of the BALB/c mice
# Assay: Cytokine production by 16/6Id-stimulated LNC of treated BALB/c mice (ELISA)
# Format: in vivo
# Conditions: BALB/c mice immunized with 16/6Id, hCDR1 50 μg, LNC stimulated with 16/6Id
# Description: Induction and treatment of experimental SLE. In order to induce experimental SLE, BALB/c mice were immunized with 1-2 μg of the human mAb 16/6Id and boosted 3 weeks later. For the prevention of experimental SLE, mice were given hCDR1 or hCDR3 (mCDR1 or revmCDR1 as control peptide in Example 12) intravenously (i.v.) or s.c. concomitant with the immunization, and were injected weekly thereafter for 5 weeks. Treatment of an established disease started three and a half months following disease induction with the 16/6Id, when clinical manifestations were already observed. In Example 12, mice received 10 weekly injections (i.v. or s.c.) of mCDR1 or revmCDR1 at a dose of 100 μg/mouse. Prevention and treatment of SLE-like disease in (NZB×NZW)F1 mice with the hCDR1 or mCDR1 peptide. For prevention of SLE, mice at the age of 2 months, before disease manifestations are observed, were injected s.c. with hCDR1 (or mCDR1 in Example 12, 250 μg/mouse) once a week for 10 weeks. To treat an established disease, mice at the age of 5-7 months were injected with hCDR1 (in Example 12, mCDR1 s.c., 250 μg/mouse) once a week for 10 weeks. Proliferative Responses. PBL were isolated from heparinized venous blood by Ficoll-Hypaque (Pharmacia) density-gradient centrifugation. […] Results are expressed as the mean thymidine incorporation in counts per minute (CPM) of triplicate culture±SD, or as stimulation index (S.I.; the ratio of mean CPM at the optimal concentration of the human 16/6Id to the mean CPM in the presence of medium alone). […] TGF-β was determined by an ELISA. […] The substrate solution used was TMB color Reagent (Helix Diagnostics, West Sacramento, Calif.), and enzyme activity was evaluated by using 570- and 630-nm filters. […] Proteinuria was measured semiquantitatively by using Combistix kit (Ames Division, Bayer Diagnostics, Newbury, U.K.). White blood cells (WBC, for leukopenia) were counted after a 10-fold dilution of heparinized blood in distilled water containing 1% acetic acid (vol/vol). […]
sequence,measurement,setting,value
"GYYWSWIRQPPGKGEEWIG (Human) [hCDR1, 19-mer peptide based on the CDR1 of the heavy chain of the human 16/6Id mAb]",production of INF-γ,FIG. 3A,down-regulated
same,secretion of TGF-β,FIG. 3B,up-regulated
same,secretion of IL-10,FIG. 3C,up-regulated

# — US7858738B2, “Synthetic human peptides and pharmaceutical compositions comprising them for the treatment of systemic lupus erythematosus” (Yeda Research and Development Co., Ltd., priority 2001, dated 2010)
